Measured values as given in patent US20020137929A1, “1 - (3-heterocyclylphenyl) isothiourea, -isourea, -guanidine and -amidine herbicidal agents” (Intellectual Property Department, BASF Aktiengesellschaft, priority 1998, published 2002).

Tests used:
ABUTH (Velvetleaf) [1] = test: Postemergence herbicidal evaluation; type: in vivo, Abutilon theophrasti; settings: postemergence
How it was run: (§1)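 ~2-wk seedlings; postemergence spray, 40 psi; vehicle 1:1 acetone:water + 0.5% Tween 20; rate ≈0.0156–0.500 kg/ha; greenhouse hold; scored 4–5 wk after treatment, 0–9 scale vs control; repeat tests averaged.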

[2] = system: IPOHE (Morningglory, Ivyleaf); test: Postemergence herbicidal evaluation; type: in vivo, Ipomoea hederacea; settings: postemergence
How it was run: as §1

SETVI (Foxtail, Green) = test: Postemergence herbicidal evaluation; type: in vivo, Setaria viridis; settings: postemergence
How it was run: as §1

[3] = system: GLXMAW (Soybean, Williams); test: Postemergence herbicidal evaluation; type: in vivo, Glycine max, (L.) Merr. cv Williams; settings: postemergence
How it was run: as §1

ZEAMX (Corn, Field) = test: Postemergence herbicidal evaluation; type: in vivo, Zea mays; settings: postemergence
How it was run: as §1

ABUTH (Velvetleaf) [4] = test: Preemergence herbicidal evaluation; type: in vivo, Abutilon theophrasti; settings: preemergence, rated 4-5 weeks after treatment, 0-9 scale
How it was run: (§2)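 Rating at 4–5 wk post-spray on a 0–9 visual scale vs control. Application: aqueous acetone, ~0.0156–0.500 kg/ha, to soil surface after seeding, preemergence.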

AMBEL (Ragweed, Common) = test: Preemergence herbicidal evaluation; type: in vivo, Ambrosia artemisifolia; settings: preemergence, rated 4-5 weeks after treatment, 0-9 scale
How it was run: as §2

CASOB (Sicklepod) = test: Preemergence herbicidal evaluation; type: in vivo, Cassia obtusifolia; settings: preemergence, rated 4-5 weeks after treatment, 0-9 scale
How it was run: as §2

[5] = system: IPOHE (Morningglory, Ivyleaf); test: Preemergence herbicidal evaluation; type: in vivo, Ipomoea hederacea; settings: preemergence, rated 4-5 weeks after treatment, 0-9 scale
How it was run: as §2

ECHCG (Barnyardgrass) = test: Preemergence herbicidal evaluation; type: in vivo, Echinochloa crus-galli; settings: preemergence, rated 4-5 weeks after treatment, 0-9 scale
How it was run: as §2

[6] = system: ECHORC (Watergrass (Calif.)); test: Preemergence weed control under flooded paddy conditions; type: in vivo, Echinochloa oryzoides; settings: rated 3-4 weeks after treatment
How it was run: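 Seeds or propagules sown in top 0.5 cm of silt loam soil, flooded 1.5 to 3 cm above surface throughout. Compound in 50/50 v/v aqueous/acetone pipetted into flood water at about 0.0313 to 0.500 kg/ha. Visual 0-9 rating versus control after three to four weeks in greenhouse.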

CYPSE (Flatsedge) = test: as above; type: in vivo, Cyperus serotinus; settings: rated 3-4 weeks after treatment
How it was run: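 Silt loam, seeds in top 0.5 cm; flood held 1.5-3 cm; test cpd as acetone/water 50/50 into flood water, ~0.0313-0.500 kg/ha a.i.; greenhouse 3-4 wk; visual 0-9 score vs control.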

[7] = system: ECHORC (Watergrass (Calif.)); test: Postemergence weed control under flooded paddy conditions; type: in vivo, Echinochloa oryzoides; settings: postemergence weeds, rated 3 to 4 weeks after treatment
How it was run: (§3)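 Weeds 3 to 5 cm tall and rice seedlings at the 1.5 to 2.5 leaf stage were flooded, with water held 1.5 to 3 cm above the soil. Compounds in 50/50 v/v aqueous/acetone went into the flood water at about 0.0313 to 0.500 kg/ha. Visual 0-9 ratings versus control were made 3 to 4 weeks later.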

CYPIR (Rice Flatsedge) = test: as above; type: in vivo, Cyperus iria; settings: postemergence weeds, rated 3 to 4 weeks after treatment
How it was run: as §3

SMILES: C=CCN1C(=O)C(CC(=O)NOC)SC1=Nc1cc(-n2c(=O)cc(C(F)(F)F)n(C)c2=O)c(F)cc1Cl (stereo not drawn) [Compound 85]
- ABUTH herbicidal rating (ABUTH (Velvetleaf) [1]; rate 0.0156 kg/ha): 9.0
- ABUTH herbicidal rating (ABUTH (Velvetleaf) [1]; rate 0.0313 kg/ha): 9.0
- ABUTH herbicidal rating (ABUTH (Velvetleaf) [1]; rate 0.0625 kg/ha): 9.0
- ABUTH herbicidal rating (ABUTH (Velvetleaf) [1]; rate 0.1250 kg/ha): 9.0
- IPOHE herbicidal rating ([2]; rate 0.0156 kg/ha): 9.0
- IPOHE herbicidal rating ([2]; rate 0.0313 kg/ha): 9.0
- IPOHE herbicidal rating ([2]; rate 0.0625 kg/ha): 9.0
- IPOHE herbicidal rating ([2]; rate 0.1250 kg/ha): 9.0
- SETVI herbicidal rating (SETVI (Foxtail, Green); rate 0.0156 kg/ha): 0.0
- SETVI herbicidal rating (SETVI (Foxtail, Green); rate 0.0313 kg/ha): 0.0
- SETVI herbicidal rating (SETVI (Foxtail, Green); rate 0.0625 kg/ha): 9.0
- SETVI herbicidal rating (SETVI (Foxtail, Green); rate 0.1250 kg/ha): 9.0
- GLXMAW herbicidal rating ([3]; rate 0.0156 kg/ha): 4.5
- GLXMAW herbicidal rating ([3]; rate 0.0313 kg/ha): 6.0
- GLXMAW herbicidal rating ([3]; rate 0.0625 kg/ha): 6.0
- GLXMAW herbicidal rating ([3]; rate 0.1250 kg/ha): 7.5
- ZEAMX herbicidal rating (ZEAMX (Corn, Field); rate 0.0156 kg/ha): 4.0
- ZEAMX herbicidal rating (ZEAMX (Corn, Field); rate 0.0313 kg/ha): 6.5
- ZEAMX herbicidal rating (ZEAMX (Corn, Field); rate 0.0625 kg/ha): 7.5
- ZEAMX herbicidal rating (ZEAMX (Corn, Field); rate 0.1250 kg/ha): 8.5
- ABUTH rating (ABUTH (Velvetleaf) [4]; 0.0156 kg/ha): 0.0
- ABUTH rating (ABUTH (Velvetleaf) [4]; 0.0313 kg/ha): 9.0
- ABUTH rating (ABUTH (Velvetleaf) [4]; 0.0625 kg/ha): 9.0
- ABUTH rating (ABUTH (Velvetleaf) [4]; 0.1250 kg/ha): 9.0
- ABUTH rating (ABUTH (Velvetleaf) [4]; 0.2500 kg/ha): 9.0
- ABUTH rating (ABUTH (Velvetleaf) [4]; 0.5000 kg/ha): 9.0
- AMBEL rating (AMBEL (Ragweed, Common); 0.0156 kg/ha): 0.0
- AMBEL rating (AMBEL (Ragweed, Common); 0.0313 kg/ha): 0.0
- AMBEL rating (AMBEL (Ragweed, Common); 0.0625 kg/ha): 3.0
- AMBEL rating (AMBEL (Ragweed, Common); 0.1250 kg/ha): 7.0
- AMBEL rating (AMBEL (Ragweed, Common); 0.2500 kg/ha): 9.0
- AMBEL rating (AMBEL (Ragweed, Common); 0.5000 kg/ha): 9.0
- CASOB rating (CASOB (Sicklepod); 0.0156 kg/ha): 0.0
- CASOB rating (CASOB (Sicklepod); 0.0313 kg/ha): 0.0
- CASOB rating (CASOB (Sicklepod); 0.0625 kg/ha): 0.0
- CASOB rating (CASOB (Sicklepod); 0.1250 kg/ha): 0.0
- CASOB rating (CASOB (Sicklepod); 0.2500 kg/ha): 0.0
- CASOB rating (CASOB (Sicklepod); 0.5000 kg/ha): 9.0
- IPOHE rating ([5]; 0.0156 kg/ha): 0.0
- IPOHE rating ([5]; 0.0313 kg/ha): 0.0
- IPOHE rating ([5]; 0.0625 kg/ha): 2.0
- IPOHE rating ([5]; 0.1250 kg/ha): 5.0
- IPOHE rating ([5]; 0.2500 kg/ha): 7.0
- IPOHE rating ([5]; 0.5000 kg/ha): 9.0
- ECHCG rating (ECHCG (Barnyardgrass); 0.0156 kg/ha): 0.0
- ECHCG rating (ECHCG (Barnyardgrass); 0.0313 kg/ha): 0.0
- ECHCG rating (ECHCG (Barnyardgrass); 0.0625 kg/ha): 0.0
- ECHCG rating (ECHCG (Barnyardgrass); 0.1250 kg/ha): 0.0
- ECHCG rating (ECHCG (Barnyardgrass); 0.2500 kg/ha): 0.0
- ECHCG rating (ECHCG (Barnyardgrass); 0.5000 kg/ha): 4.0
- ECHORC herbicidal effect rating ([6]; 0.0313 kg/ha): 4.0
- ECHORC herbicidal effect rating ([6]; 0.0625 kg/ha): 5.0
- ECHORC herbicidal effect rating ([6]; 0.1250 kg/ha): 7.0
- ECHORC herbicidal effect rating ([6]; 0.2500 kg/ha): 9.0
- CYPSE herbicidal effect rating (CYPSE (Flatsedge); 0.0313 kg/ha): 0.0
- CYPSE herbicidal effect rating (CYPSE (Flatsedge); 0.0625 kg/ha): 2.0
- CYPSE herbicidal effect rating (CYPSE (Flatsedge); 0.1250 kg/ha): 2.0
- CYPSE herbicidal effect rating (CYPSE (Flatsedge); 0.2500 kg/ha): 9.0
- Herbicidal rating ECHORC ([7]; Rate 0.0313 kg/ha): 4.0
- Herbicidal rating ECHORC ([7]; Rate 0.0625 kg/ha): 5.0
- Herbicidal rating ECHORC ([7]; Rate 0.1250 kg/ha): 7.0
- Herbicidal rating ECHORC ([7]; Rate 0.2500 kg/ha): 9.0
- Herbicidal rating CYPIR (CYPIR (Rice Flatsedge); Rate 0.0313 kg/ha): 3.0
- Herbicidal rating CYPIR (CYPIR (Rice Flatsedge); Rate 0.0625 kg/ha): 7.0
- Herbicidal rating CYPIR (CYPIR (Rice Flatsedge); Rate 0.1250 kg/ha): 9.0
- Herbicidal rating CYPIR (CYPIR (Rice Flatsedge); Rate 0.2500 kg/ha): 9.0
